Experiments:
[1] = Ultraviolet light absorption maximum and absorbance in ethanol solution; type: physicochemical; conditions: for Absorbance 300 nm / Absorbance 350 nm / Absorbance UVmax: concentration of 10 μg/ml in an ethanol solution; for Absorbance UVmax: at UVmax; for UVmax: ultraviolet light absorption maximum
[2] = tested on: lipid peroxidation reaction of liver microsome; assay: Cell protection activity test (inhibition of lipid peroxidation, thiobarbituric acid method); type: biochemical, rat; conditions: 37° C 20 minutes, n = 3 - 5; for Inhibition ratio 10^-5 concentration: 10 µM; for Inhibition ratio 10^-4M concentration: final concentration 10^-4M, 100 µM
Description: Cell impairment caused by a radical reaction of an organic compound is known as one of optical affections on the skin.
First, rat liver microsome was obtained by a conventional method, and then, suspended in 1.15 % KCl to prepare a microsome suspension.
Then, the above microsome suspension in an amount of 2 mg as protein was added to a tris-HCl buffer (pH 7.4) containing NADPH (final concentration 0.2 mM), ADP (final concentration 1 mM) and FeCl₃ (final concentration 10 µM). And, 10 µl of a dimethylformamide (DMF) solution of a test compound was added so that the total amount was 1 ml, and the resultant mixture was warmed at 37° C for 20 minutes. The test compound was added such that the final concentration became 10⁻⁴M or 10⁻⁵M.
Thereafter, the amount of formed peroxidation lipid was measured by a thiobarbituric acid method. The inhibition activity of the test compound is expressed in terms of an inhibition ratio (%) in comparison with a control group. […] In addition, in the control group, 10 µl of DMF was used in place of 10 µl of the DMF solution of the test compound.

[3] = tested on: inflammation induced by an egg-white albumin-adjuvant system; assay: Anti-inflammatory activity test (swelling of subplantar region of right hind paw); type: in vivo, SD rats; conditions: oral, 10 mg/weight-kg, 0.5 hour before inflammation inducer; measured 0.5, 1, 2, 3 and 4 hours after; Fig. 1
Description: As a test group, a comparison group and a control group, 5 male SD rats weighing 180 to 220 g were used per group. Each rat was measured for a size (volume) of the subplantar region of the right hind paw.
This aluminum hydroxide was used as an adjuvant. Per rat, a solution obtained by suspending 4 mg of the adjuvant and 0.2 mg of egg-white albumin in 0.1 ml of pertussis vaccine was prepared as an inflammation inducer.
0.5 Hour after the administration, the inflammation inducer was intracutaneously administered into the subplantar region of the right hind paw of each rat to induce swelling.
Then, 0.5, 1, 2, 3 and 4 hours after the administration of the inflammation inducer, each rat was measured for a size (volume) of the subplantar region of the right hind paw by volumetry. […] [formula] Ps: Measurement value of volume of subplantar region at a measurement time (average of the group). Po: Measurement value of volume of subplantar region before administration of inflammation inducer (average of the group).
Each rat of the control group was orally administered with a 10 % Nikkol-containing physiological saline solution in place of the 10 % Nikkol-containing physiological saline solution containing 2',4'-dihydroxychalcone. Thereafter, the same procedures as those for the test group were repeated to determine the swelling as a group.

[4] = tested on: rat abdominal cavity exudate mast cell; assay: Anti-allergic activity test (inhibition of free histamine from mast cell, concanavalin A as freeing agent); type: cell-based, SD rat; conditions: 10 min, concentration of 0.03 mM, n = 5, read-out: free histamine inhibition ratio
Description: At first, an abdominal cavity exudate mast cell of an SD rat was obtained by a conventional method. Then, the above-obtained abdominal cavity mast cell was floated on a Locke solution, and a test substance in a predetermined concentration and phosphatidylcerine (final concentration 3 µg/ml) were added. The mixture was warmed up to 37° C, and after concanavalin A as a freeing agent was added, the mixture was maintained at 37° C for 10 minutes. Thereafter, the reaction solution was centrifugally separated to a sediment portion and a supernatant portion, and the histamine amount of each of these portions was quantitatively determined by an orthophthalaldehyde method. In addition, as a test substance, a dimethylformamide solution (final concentration 0.03 mM) of 3 mM 2',4'-dihydroxychalcone and a DMF solution (final concentration 0.03 mM) of an anti-inflammatory drug (Azelastine) were used. The free histamine ratio was calculated on the basis of the following equation. In control, the solvent alone was added. [formula] Ps: Histamine amount in sediment portion Pr: Histamine amount in supernatant portion. The free histamine inhibition ratio of the test substance was calculated on the basis of the following equation. [formula] S: Free histamine ratio when test substance is added. C: Free histamine ratio when no test substance is added (control). […]

[5] = tested on: sunburn; assay: Ultraviolet screening test (ointment on skin exposed to direct sunlight); type: in vivo, normally healthy persons
Description: 10 Milligrams of the ointment containing 1 wt.% of the known chalcone derivative in Example 14, obtained in Example 15, 10 mg of an ointment containing 1 wt.% of p-aminobenzoic acid as a control, obtained in the same manner as in Example 15 except for the use of p-aminobenzoic acid in place of the above known chalcone derivative (to be abbreviated as AO in Table 3 which will follow), and 10 mg of the same hydrophilic ointment as that used in Example 15 (to be abbreviated as HO in Table 2 which will follow) were respectively applied to the femoral region of each of normally healthy persons (10 persons) such that these became circular forms having nearly the same size. Then, these applied portions were exposed to direct sunlight outdoors in fine weather for 2 hours and 30 minutes.
After the exposure, each applied portion was visually observed. The portions where clear sunburn was recognized were taken as +, the portions where slight sunburn was recognized were taken as ±, and the portions where almost no change was recognized were taken as -. The test substances were so evaluated on their ultraviolet screening effects.
The ointment containing 1 wt.% of the novel chalcone derivative of Example 1, obtained in Example 15, the ointment containing 1 wt.% of the novel chalcone derivative of Example 1, the ointment containing 1 wt.% of the novel chalcone derivative of Example 2, the ointment containing 1 wt.% of the novel chalcone derivative of Example 4, the ointment containing 1 wt.% of the novel chalcone derivative of Example 6 and the ointment containing 1 wt.% of the known chalcone derivative of Example 9 were respectively similarly tested on their ultraviolet screening effects. However, the exposure time outdoors in fine weather was set for 1 hour. […]

[6] = tested on: sunburn; assay: as above; type: in vivo, normally healthy persons; remark: listed apart in the source
[7] = tested on: notal skins of Hartley guinea pigs; assay: Safety test (ointment on skin under adhesive plaster, histological observation); type: in vivo; conditions: 10 mg ointment containing 5 wt.%, covered with adhesive plaster for 24 hours or 72 hours
Description: 10 milligrams of the ointment containing 5 wt.% of the known chalcone derivative of Example 14, obtained in Example 16, was applied to the notal skins of Hartley guinea pigs, and the applied portions were covered with an adhesive plaster for 24 hours or 72 hours.

[8] = ointment containing 1 wt.%, exposure time outdoors 1 hour
[9] = 10 mg ointment containing 1 wt.%, femoral region, 10 persons, direct sunlight 2 hours and 30 minutes

Absorbance 300 nm [1]	Absorbance 350 nm [1]	Absorbance UVmax [1]	UVmax [1] [nm]	Structure (SMILES)	Inhibition ratio 10^-5 concentration [2]	Inhibition ratio 10^-4M concentration [2]	inhibition of swelling [3]	inhibition at 30 µM [4] [%]	numbers of persons + (Clear sunburn was recognized) [5, 8] [persons]	numbers of persons + (Almost no change) [6, 8] [persons]	histological comparison of skin of applied portion and skin of normal portion [7]	ultraviolet absorption spectrum (in words) ([1]; Fig. 2)	numbers of persons + (Clear sunburn was recognized) [5, 9] [persons]	numbers of persons - (Slight sunburn was recognized) [5, 9] [persons]	numbers of persons + (Almost no change) [6, 9] [persons]
0.60~0.75	0.50~0.65	0.60~0.80	305	O=C(/C=C/c1ccc(C(F)(F)F)cc1)c1ccc(O)cc1O [Example 5]	15%	90 % or more									
0.60~0.75	0.75~0.90	0.80~0.90	320	O=C(/C=C/c1ccc([N+](=O)[O-])cc1)c1ccc(O)cc1O [Example 11]	62%	90 % or more									
0.30~0.45	0.85~1.00	0.90~1.00	355	O=C(/C=C/c1ccc2c(c1)OCO2)c1ccc(O)cc1 [Example 12]		90 % or more									
0.55~0.70	0.85~1.10	1.10~1.30	365	CCOc1ccccc1/C=C/C(=O)c1ccc(O)cc1O [Example 7]	90 % or more	90 % or more									
0.65~0.75	0.60~0.70	0.70~0.80	306	O=C(/C=C/c1ccccc1)c1ccc(O)cc1O [Example 14, 2',4'-dihydroxychalcone]	90 % or more	90 % or more	significantly inhibited swelling	56.9 ± 12.8			no difference between these two portions	has an absorption band in most of the wavelength regions of Dorno's ray and long-wavelength ultraviolet light	0	1	9
0.85~1.00	1.15~1.30	1.20~1.40	322	O=C(/C=C/c1ccc(Cl)cc1)c1ccc(O)cc1O [Example 10]	32%	90 % or more									
0.70~0.85	0.80~0.95	0.80~1.10	320	O=C(/C=C/c1ccccc1F)c1ccc(O)cc1O [Example 3]	90 % or more	90 % or more									
0.20~0.40	0.60~0.75	0.80~0.95	364	CCOc1ccc(/C=C/C(=O)c2ccc(O)cc2O)cc1 [Example 6]	30%	90 % or more			0	3					

More lines, now with the values behind:

Structure (SMILES)	Absorbance 300 nm [1]	Absorbance 350 nm [1]	Absorbance UVmax [1]	UVmax [1] [nm]	Inhibition ratio 10^-5 concentration [2]	Inhibition ratio 10^-4M concentration [2]	inhibition of swelling [3]	inhibition at 30 µM [4] [%]	numbers of persons + (Clear sunburn was recognized) [5, 8] [persons]	numbers of persons + (Almost no change) [6, 8] [persons]	histological comparison of skin of applied portion and skin of normal portion [7]	ultraviolet absorption spectrum (in words) ([1]; Fig. 2)	numbers of persons + (Clear sunburn was recognized) [5, 9] [persons]	numbers of persons - (Slight sunburn was recognized) [5, 9] [persons]	numbers of persons + (Almost no change) [6, 9] [persons]
COc1ccc2c(c1)c(CC(=O)O)c(C)n2C(=O)c1ccc(Cl)cc1 [indomethacin, reference compound]							significantly inhibited swelling								
O=C(/C=C/c1ccccc1)c1ccc(O)cc1 [Example 8]	1.40~1.50	0.75~0.85	1.80~2.10	318	64%	90 % or more									
CN1CCCC(n2nc(Cc3ccc(Cl)cc3)c3ccccc3c2=O)CC1 (stereo not shown) [Azelastine, reference compound]								20.8 ± 4.2							
O=C(/C=C/c1ccc(F)cc1)c1ccc(O)cc1O [Example 4]	0.50~0.65	0.60~0.70	0.55~0.70	346	90 % or more	90 % or more			0	4					
O=C(/C=C/c1cccc(F)c1)c1ccc(O)cc1O [Example 1, 2',4'-dihydroxy-3-fluoro-chalcone]	0.70~0.85	0.70~0.85	0.80~0.95	317	90 % or more	90 % or more			0	4	no histological difference				
O=C(/C=C/c1ccc(O)c(O)c1)c1ccc(O)cc1 [Example 13]	0.35~0.50	0.85~1.00	1.00~1.15	365	84%	90 % or more									
O=C(/C=C/c1cccc(F)c1)c1ccc(O)cc1 [Example 2]	0.90~1.00	0.45~0.55	0.90~1.20	318	16%	90 % or more			0	4					
Cc1ccc(/C=C/C(=O)c2ccc(O)cc2O)cc1 [Example 9]	0.40~0.55	0.90~1.00	0.80~1.10	352	25%	90 % or more			0	4					

— patent EP0502205A1, “CHALCONE DERIVATIVE AND ULTRAVIOLET SCREENING COSMETIC” (NIPPON HYPOX LABORATORIES INCORPORATED, priority 1990, dated 1992)
